Assay [1] deals with primary oligodendrocyte cultures (3 DIV). Nature of the assay: ATP toxicity assay in oligodendrocytes. Format: cell-based, mouse. As for the experimental part: (§1) PAR agonist-induced changes in oligodendrocyte morphology: To determine the effects of recombinant Klk6, Klk1, thrombin, or PAR1-AP on oligodendroglia, 3 DIV PAR1^+/+, PAR1^−/−, and PAR2^−/− oligodendrocytes, PAR1^+/+ OPCs immediately post purification, or Oli-neu cells were grown on cover slips in the presence of agonists for 24 h. For ATP toxicity assays, oligodendrocytes were incubated with ATP (50 μM, Sigma Aldrich) in the presence of Klk6 or Klk1. Following each treatment, oligodendrocyte and OPC cultures were immunolabeled for O4 to visualize the cell body and processes. Oli-neu processes were visualized by staining the actin cytoskeleton with Cy3-conjugated Phalloidin.
(§2) To assess the effects of Klk6 and other PAR1 agonists on oligodendrocyte morphology and process stability, 20× digital micrographs were overlaid with a 780 μm^2 grid and ImageJ software 1.45r (National Institutes of Health) used to record cell number and the number of processes crossing horizontal grid lines (Scarisbrick et al., Brain 125:1283-1296, 2002). Data are expressed as the mean number of O4^+ or Phalloidin^+ processes per DAPI^+ cell (±SEM).
(§3) The extent of oligodendrocyte morphological differentiation was determined by scoring O4^+/DAPI^+ oligodendrocyte morphology as simple (only primary processes, no secondary branching), incomplete (one or more primary process without secondary branching), complete (all primary processes with secondary branching), or membrane (complete secondary branching with membrane sheets) (Huang et al., Nat Neurosci 14:45-53, 2011). The mean number of cells in each morphology class was determined across treatments and expressed as percent of total O4^+/DAPI^+ cells.
(§4) Changes in OPC or oligodendrocyte morphology were quantified from five microscopic fields per cover slip with the mean and SEM calculated across three cover slips per experiment. Each experiment was repeated at least twice using independent cultures. Analysis of oligodendrocyte morphology was performed without knowledge of treatment groups.

The subject of assay [2] is rat primary oligodendrocytes. Conditions: 30 or 300 nM, 24 hours; cited from earlier work.
Assay [3] deals with primary oligodendrocyte cultures (3 DIV). Nature of the assay: Oligodendrocyte morphological differentiation scoring (simple, incomplete, complete, membrane), process and cell number. Particulars: 24 hours. Format: cell-based, mouse. Here is the method:
(§5) Oligodendrocyte Cultures: Purified cortical oligodendrocyte progenitor cells (OPCs) and differentiated oligodendrocytes were isolated from mixed glial cultures derived from postnatal day 1 mice (McCarthy and de Vellis, J Cell Blot 85:890-902, 1980). Glial cultures were grown in media containing DMEM, 2 mM Glutamax, 1 mM sodium pyruvate, 20 mM HEPES, and 10% heat-inactivated fetal calf serum (Atlanta Biologicals, Lawrenceville, GA). OPCs were isolated from 10 days-in-vitro (DIV) mixed glial cultures by overnight shaking and purified by differential adhesion. OPCs were seeded in defined Neurobasal A media containing 1% N2, 50 U/mL penicillin/streptomycin, 2 mM Glutamax, 1 mM sodium pyruvate, 0.45% glucose, and 50 μM β-mercaptoethanol (Sigma Aldrich, USA). OPCs were seeded at 3×10^4/cm^2 onto tissue culture plastic or 12 mm glass cover slips coated with poly-L-lysine (PLL, 10 μg/mL). After 24 h, cultures were 92-98% immunoreactive (IR) for sulfatide (O4) and by 72 hours at least 80% were also MBP-IR.
as §1, §2, §3, §4

The test system of assay [4] is PLP and MBP RNA expression. The assay is described as follows: Myelin gene expression (PLP, MBP RNA) in Oli-neu oligodendrocytes, quantitative RT-PCR. Particulars: 24 hours. In kind it is cell-based, mouse. As for the experimental part: Oli-neu oligodendrocytes are derived from mouse primary oligodendrocyte cultures retrovirally transduced to constitutively express the t-neu oncogene (Jung et al., Eur J Neurosci 7:1245-1265, 1995). All morphology, signaling, and myelin gene expression studies using Oli-neu oligodendrocytes were performed in media containing DMEM, 1% N2, 2 mM Glutamax, 1 mM sodium pyruvate, 20 mM HEPES buffer, and 50 μM β-mercaptoethanol (Sigma Aldrich. To evaluate PAR and Klk6 gene expression in Oli-neu (Table 2), cells were differentiated by treatment with 1 mM N^6, 2′-O-dibutyryladenosine 3′, 5′-cyclic monophosphate disodium salt (dbcAMP) for 72 hours prior to harvesting for RNA isolation. All cells were maintained at 37° C. in 95% air and 5% CO2. Cell culture reagents were obtained from Life Technologies (Carlsbad, CA) unless otherwise indicated. All cell culture experiments were performed in triplicate and repeated at least twice.
Expression of oligodendrocyte PARs and Klk6-real-time quantitative PCR: Total RNA was isolated from cultured cells using RNA STAT-60 (Tel-Test, Friendswood, TX). Klk6, PAR1, or PAR2 RNA expression was determined in 0.5 μg of RNA with the iScript one-step RT-PCR kit with SYBR® Green and the iCycler iQ5 system (BioRad, Hercules, CA). Transcript copy number was determined using a standard curve prepared by parallel amplification of cDNA clones diluted to known copy number (Christophi et al., J Neurochem 91:1439-1449, 2004). Amplification of the housekeeping gene glyceraldehyde phosphate 3-dehydrogenase (GAPDH) was used to control for loading. The mean and standard error (SEM) of transcript copy number was determined and data expressed as RNA copy number on a logarithmic scale.
Regulation of oligodendrocyte myelin gene expression by PAR1 agonists: Primary murine oligodendrocytes (3 DIV) or Oli-neu oligodendrocytes were seeded at 3.5×10^5 cells/well in six-well tissue culture plates. Cells were then treated with Klk6 (30-300 nM), Klk1 (300 nM), thrombin (270 nM), or PAR1-AP (100 μM) for 24 hours prior to RNA isolation. Expression of myelin-associated genes, PLP, and MBP was examined by real-time quantitative RT-PCR. Expression levels of target genes were normalized to GAPDH and expressed as percent control.

Assay [5] has as its system oligodendrocyte progenitor cells (OPCs). Nature of the assay: OPC process outgrowth. In kind it is cell-based, mouse. Particulars: 24 h. Here is the method:
as §5, §1, §2, §4

The subject of a further assay is primary oligodendrocytes. The assay is described as follows: Klk6-induced process retraction in primary oligodendrocytes (O4+ processes per cell). Format: cell-based, mouse. As for the experimental part:
as §5, §1, §2, §4

The mark [6] stands for this setting: co-application with ATP 50 μM, Klk6 150 nM.

For “Klk6: Recombinant murine kallikrein-related peptidase 6 expressed using a baculovirus system”, in assay [1] (co-application with ATP), the ATP-induced oligodendrocyte loss result is “significant exacerbation”. In addition, in assay [1] (co-application with ATP 50 μM), the “number of processes per oligodendrocyte” value is reported as “five-fold reduction”, the “oligodendrocytes with membrane morphology” value is recorded as “complete loss” and the “oligodendroglia with mature complete morphology” value is listed as “complete loss”. In assay [1] (setting [6]), the “increase in oligodendrocytes with incomplete morphologies compared with vehicle or ATP alone” value was “greater than 40%” and the “percentage of oligodendrocytes with simple morphology relative to ATP alone” value was “further increasing”. Also, the “process retraction and oligodendrocyte degeneration” value in assay [2] is “significant process retraction without oligodendrocyte degeneration”. For the same substance, in assay [3] (150 nM), the “number of incomplete oligodendrocyte morphologies” value is on record as “greater than four-fold increase”, the “number of simple oligodendrocyte morphologies” value is “two-fold increase”, the “oligodendrocytes with complete morphology” value was “nearly eleven-fold decrease” and the “oligodendroglia with membrane morphology” value was “elimination”. Further, in assay [3] (Klk6 150 nM, Klk1 300 nM), the oligodendrocyte number entry is on record as “no significant effect” and the processes per cell result is “two-fold fewer”. Besides, in assay [4], the “MBP RNA” value is “no significant suppression”; the “PLP RNA at 30, 150 and 300 nM” value is “significant and equivalent PLP RNA down regulation”. In addition, in assay [4] (Klk6 300 nM, thrombin 270 nM, PAR1-AP 100 μM, Klk1 300 nM), the PLP expression result is reported as “significantly diminished”. In addition, the “fewer processes per cell compared with controls” value in assay [5] (150 nM) was about 60%. Moreover, the “number of OPCs” value in assay [5] is listed as “significantly reduced”. Further, the “OPC process extension / outgrowth” value in assay [5] (Klk6 150 nM, thrombin 135 nM, Klk1 150 nM) was “significantly fewer processes than thrombin treated cultures”. Moreover, the “oligodendrocyte process retraction compared with controls” value with primary oligodendrocytes (PAR1+/+ oligodendrocytes 3 DIV, 30 or 300 nM, 24 h) was “significant and statistically equivalent oligodendrocyte process retraction”. In addition, the “number of O4+ cells” value with primary oligodendrocytes (PAR1+/+, PAR1-/- or PAR2-/- cells) is “No significant differences”. In the assay on primary oligodendrocytes (PAR1-/- oligodendrocytes, 30 or 300 nM), the oligodendrocyte process retraction result was “did not exhibit statistically significant process retraction”. Also, in the assay on primary oligodendrocytes (PAR2-/- oligodendrocytes, 30 or 300 nM), the oligodendrocyte process retraction result is “process retraction comparable to that seen in PAR1^+/+ cultures”.

The values are drawn from US11813264B2, “PAR1 modulation to alter myelination” (Mayo Foundation for Medical Education and Research, priority 2014, dated 2023).
